The text below walks through data of publication PMC3262027 (Journal of Medicinal Chemistry, 2011).

The target of assay [1] is T1, human quinone reductase 2 (QR2) (Homo sapiens, UniProt P16083).
T1 sequence (P16083 1-231): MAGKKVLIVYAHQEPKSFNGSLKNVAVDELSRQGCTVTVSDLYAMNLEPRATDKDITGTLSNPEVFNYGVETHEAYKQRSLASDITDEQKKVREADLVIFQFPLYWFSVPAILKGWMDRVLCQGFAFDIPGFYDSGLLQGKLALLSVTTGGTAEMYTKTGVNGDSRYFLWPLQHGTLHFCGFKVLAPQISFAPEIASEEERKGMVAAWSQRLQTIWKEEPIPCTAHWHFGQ
The experiment in a line: QR2 steady-state kinetic assay. The assay is classed as biochemical. Conditions: for inhibitory activity against QR2: result in words.

In assay [2] the test system is normal prostate stromal cells (PrSCs). Conditions: result in words; cited from earlier work.
The subject of assay [3] is normal prostate epithelial cells (PrECs). Conditions: result in words; cited from earlier work.

Turning to `COC(=O)c1cc(C(N)=O)nc2cc(N)c(N)c(Cl)c12` [Compound 23, Methyl 6,7-Diamino-2-carbamoyl-5-chloroquinoline-4-carboxylate], in assay [1] (relative to 12), the “increase in QR2 inhibitory activity” value is 10 fold.

Consider `COC(=O)C1CC(O)(C(=O)OC)c2c(N)c(Cl)cc(Cl)c2N1` (centres unmarked) [Compound 26, Dimethyl 5-Amino-6,8-dichloro-4-hydroxy-1,2,3,4-tetrahydroquinoline-2,4-dicarboxylate], for which, in assay [1], the “inhibitory activity against QR2” value is “none showed inhibitory activity”. In the case of `Oc1ccc(/C=C/c2cc(O)cc(O)c2)cc1` [resveratrol], the “effect on cellular proliferation of PrSCs” value in assay [2] is recorded as “dose-dependent inhibition of cellular proliferation”. Besides, in assay [3], the “effect on PrEC growth” value was “no effect”.

For the compound `COC(=O)C1CC2(O)C(=O)Nc3c(Cl)cc(Cl)c(c32)N1` (centres unmarked) [Compound 33, Methyl 6,8-Dichloro-2a-hydroxy-2-oxo-1,2,2a,3,4,5-hexahydropyrrolo[4,3,2-d,e]quinoline-4-carboxylate], in assay [1], the “inhibitory activity against QR2” value is “none showed inhibitory activity”.
